Test results reported in PMC6009913, “N-aryl 2-aryloxyacetamides as a new class of fatty acid amide hydrolase (FAAH) inhibitors” (Journal of Enzyme Inhibition and Medicinal Chemistry, 2017).
Values after ≈ are worked out from the molar mass of the structure shown. Like-named read-outs stand apart in the source and are kept apart here.

Experiments:
FAAH [1] = biological target: T1, FAAH (Rattus norvegicus, UniProt P97612); assay: FAAH inhibition, hydrolysis of 0.5 µM [3H]AEA in rat brain homogenates; format: biochemical; settings: for Maximum inhibition: maximal attainable inhibition according to preferred curve fit, mean ± standard error; for effect of pre-incubation on inhibition curve (time dependence): 60 vs. 0 min of pre-incubation
T1 construct: using rat brain homogenates as enzyme source; from tissue; host or cells: rat brain homogenate
T1 sequence (P97612 1-579): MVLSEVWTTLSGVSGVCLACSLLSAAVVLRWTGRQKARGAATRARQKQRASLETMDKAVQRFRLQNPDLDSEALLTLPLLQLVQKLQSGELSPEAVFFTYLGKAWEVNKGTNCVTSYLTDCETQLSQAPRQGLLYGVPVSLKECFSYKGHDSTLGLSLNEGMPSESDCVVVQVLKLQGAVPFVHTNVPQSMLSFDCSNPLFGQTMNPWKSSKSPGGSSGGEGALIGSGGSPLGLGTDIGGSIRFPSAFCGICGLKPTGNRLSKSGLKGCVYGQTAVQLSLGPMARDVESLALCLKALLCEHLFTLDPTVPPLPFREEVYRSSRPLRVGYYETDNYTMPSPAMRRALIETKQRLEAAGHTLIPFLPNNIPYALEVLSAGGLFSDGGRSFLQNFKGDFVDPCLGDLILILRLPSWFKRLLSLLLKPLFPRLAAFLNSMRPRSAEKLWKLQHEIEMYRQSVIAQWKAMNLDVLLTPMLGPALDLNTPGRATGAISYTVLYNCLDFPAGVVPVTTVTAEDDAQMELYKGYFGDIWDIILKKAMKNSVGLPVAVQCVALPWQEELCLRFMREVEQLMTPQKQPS

[2] = thermodynamic aqueous solubility in phosphate-buffered saline; format: physicochemical; settings: aqueous buffer, thermodynamic from solid; phosphate-buffered saline 10 mM, pH 7.48, 37 °C
FAAH [3] = tested on: FAAH; design: method as in PMID 21502526; settings: reported; cited from earlier work
FAAH [4] = tested on: FAAH; design: method as in PMID 12461523; settings: previously reported data; cited from earlier work
[5] = 60-min pre-incubation with enzyme

Row | Maximum inhibition (FAAH [1]; no pre-incubation) [%] | SMILES | also measured
1 | −1 ± 3 | O=C(COc1ccc(C2CCCCC2)cc1)Nc1ccccc1-c1nc2ncccc2o1 [4b, 2-(4-Cyclohexylphenoxy)-N-(2-(oxazolo[4,5-b]pyridin-2-yl)phenyl)acetamide] | 
2 | 100 | O=C(COc1ccccc1)Nc1cccc(-c2nc3ncccc3o2)c1 [4d, N-(3-(oxazolo[4,5-b]pyridin-2-yl)phenyl)-2-phenoxyacetamide] | 
3 | 100 | CCC/C=C/COCC(=O)Nc1cccc(-c2nc3ncccc3o2)c1 [4h, (E)-2-(hex-2-en-1-yloxy)-N-(3-(oxazolo[4,5-b]pyridin-2-yl)phenyl)acetamide] | 
4 | 62 ± 4 | O=C(COc1ccc(C2CCCCC2)cc1)Nc1ccc(-c2nc3ncccc3[nH]2)cc1 [4s, N-(4-(1H-imidazo[4,5-b]pyridin-2-yl)phenyl)-2-(4-cyclohexylphenoxy)acetamide] | solubility thermodynamic [2]: 3 µM (≈ 1.28 µg/mL); effect of pre-incubation on inhibition curve (time dependence) (FAAH [1]): essentially identical inhibition curves
5 | 3 ± 5 | O=C(COc1ccc(-c2ccccc2)cc1)Nc1ccccc1-c1nc2ncccc2o1 [4a, 2-([1,1′-Biphenyl]-4-yloxy)-N-(2-(oxazolo[4,5-b]pyridin-2-yl)phenyl)acetamide] | 
6 | 70 ± 2 | O=C(COc1ccc(-c2ccccc2)cc1)Nc1ccccc1-c1nc2ncccc2[nH]1 [4l, N-(2-(1H-imidazo[4,5-b]pyridin-2-yl)phenyl)-2-([1,1'-biphenyl]-4-yloxy)acetamide] | effect of pre-incubation on inhibition curve (time dependence) (FAAH [1]): reduced maximal inhibition
7 | 100 | CCC/C=C/COCC(=O)Nc1ccccc1-c1nc2ncccc2[nH]1 [4n, (E)-N-(2–(1H-imidazo[4,5-b]pyridin-2-yl)phenyl)-2-(hex-2-en-1-yloxy)acetamide] | 
8 | 100 | CCC/C=C/COCC(=O)Nc1ccc(-c2nc3ncccc3[nH]2)cc1 [4t, (E)-N-(4-(1H-imidazo[4,5-b]pyridin-2-yl)phenyl)-2-(hex-2-en-1-yloxy)acetamide] | IC50 (FAAH [1]; [5]): 43000 nM; effect of pre-incubation on inhibition curve (time dependence) (FAAH [1]): A small degree of time-dependent inhibition; IC50 (FAAH [1]; rat brain homogenates, 0.5 µM [3H]AEA, no pre-incubation, pooled from three independent experiments, 5–7 concentrations): 64000 nM
9 | 82 ± 3 | O=C(COc1ccc(C2CCCCC2)cc1)Nc1ccccc1-c1nc2ncccc2[nH]1 [4m, N-(2-(1H-imidazo[4,5-b]pyridin-2-yl)phenyl)-2-(4-cyclohexylphenoxy)acetamide] | solubility thermodynamic [2]: 3 to 20 µM (≈ 1.28 to 8.53 µg/mL); effect of pre-incubation on inhibition curve (time dependence) (FAAH [1]): reduced maximal inhibition
10 | 71 ± 9 | O=C(COc1ccc(-c2ccccc2)cc1)Nc1cccc(-c2nc3ncccc3[nH]2)c1 [4o, N-(3-(1H-imidazo[4,5-b]pyridin-2-yl)phenyl)-2-([1,1'-biphenyl]-4-yloxy)acetamide] | 
11 | 100 | CCC/C=C/COCC(=O)Nc1cccc(-c2nc3ncccc3[nH]2)c1 [4q, (E)-N-(3-(1H-imidazo[4,5-b]pyridin-2-yl)phenyl)-2-(hex-2-en-1-yloxy)acetamide] | 
12 | 80 ± 2 | O=C(COc1ccc(-c2ccccc2)cc1)Nc1ccc(-c2nc3ncccc3[nH]2)cc1 [4r, N-(4-(1H-imidazo[4,5-b]pyridin-2-yl)phenyl)-2-([1,1'-biphenyl]-4-yloxy)acetamide] | solubility thermodynamic [2]: 20 µM (≈ 8.41 µg/mL); effect of pre-incubation on inhibition curve (time dependence) (FAAH [1]): reduced maximal inhibition
13 | 46 ± 9 | CCC/C=C/COCC(=O)Nc1ccc(-c2nc3ncccc3o2)cc1 [4k, (E)-2-(hex-2-en-1-yloxy)-N-(4-(oxazolo[4,5-b]pyridin-2-yl)phenyl)acetamide] | 
14 | 100 | O=C(COc1ccc(C2CCCCC2)cc1)Nc1cccc(-c2nc3ncccc3o2)c1 [4g, 2-(4-Cyclohexylphenoxy)-N-(3-(oxazolo[4,5-b]pyridin-2-yl)phenyl)acetamide] | 
15 | 100 | CC(C)c1ccc(OCC(=O)Nc2cccc(-c3nc4ncccc4o3)c2)cc1 [4e, 2-(4-Isopropylphenoxy)-N-(3-(oxazolo[4,5-b]pyridin-2-yl)phenyl)acetamide] | 
16 | 75 ± 4 | O=C(COc1ccc(-c2ccccc2)cc1)Nc1ccc(-c2nc3ncccc3o2)cc1 [4i, 2-([1,1′-Biphenyl]-4-yloxy)-N-(4-(oxazolo[4,5-b]pyridin-2-yl)phenyl)acetamide] | solubility thermodynamic [2]: 18 µM (≈ 7.59 µg/mL); IC50 (FAAH [1]; [5]): 280 nM; maximum observed inhibition (FAAH [1]; [5]): 39 ± 2%
17 | 100 | O=C(COc1ccc(C2CCCCC2)cc1)Nc1cccc(-c2nc3ncccc3[nH]2)c1 [4p, N-(3-(1H-imidazo[4,5-b]pyridin-2-yl)phenyl)-2-(4-cyclohexylphenoxy)acetamide] | 
18 | 7 ± 3 | CCC/C=C/COCC(=O)Nc1ccccc1-c1nc2ncccc2o1 [4c, (E)-2-(hex-2-en-1-yloxy)-N-(2-(oxazolo[4,5-b]pyridin-2-yl)phenyl)acetamide] | 
19 |  | CCn1c(=O)n([C@H]2CCCN(c3nccc(-c4cc5ccccc5o4)n3)C2)c2ccccc21 [crystal ligand, 1-{(3S)-1-[4–(1-benzofuran-2-yl)pyrimidin-2-yl]piperidin-3-yl}-3-ethyl-1,3-dihydro-2H-benzimidazol-2-one] | IC50 (FAAH [3]): 100 nM
20 | 19 ± 10 | O=C(COc1ccc(C2CCCCC2)cc1)Nc1ccc(-c2nc3ncccc3o2)cc1 [4j, 2-(4-Cyclohexylphenoxy)-N-(4-(oxazolo[4,5-b]pyridin-2-yl)phenyl)acetamide] | 
21 |  | NC(=O)c1cccc(-c2cccc(OC(=O)NC3CCCCC3)c2)c1 [URB597] | IC50 (FAAH [4]): 4.6 ± 1.6 nM
22 |  | O=C(COc1ccc(-c2ccccc2)cc1)Nc1cccc(-c2nc3ncccc3o2)c1 [4f, 2-([1,1′-Biphenyl]-4-yloxy)-N-(3-(oxazolo[4,5-b]pyridin-2-yl)phenyl)acetamide] | solubility thermodynamic [2]: 3 to 20 µM (≈ 1.26 to 8.43 µg/mL)
